The numbers were not newly measured in patent US11173140B2, “Dosing regimens of PKC activators” (COGNITIVE RESEARCH ENTERPRISES, INC., priority 2015, dated 2021), which cites them from elsewhere.

Data set [1] has as its target PKC. The note with it: cited from earlier work.
Data set [2] has as its system PKC. The note with it: cited from earlier work. This is another data set of the same source.
The test system of another data set is NCI 60 cell line screen. The note with it: NCI 60 cell lines; cited from earlier work.
Data set [3] addresses PKC. The note with it: competition with [3H] phorbol dibutyrate; read-out: Ki, binding to PKC; cited from earlier work.
Setting [4] is: A-ring bryologs, read-out: affinity for PKC.

Where two headings read alike, the source gives them in different places.

With `CCCCCCCC(=O)OC1C(=CC(=O)OC)CC2CC(CO)OC(=O)CC(O)CCOC(c3ccccc3)CC3CCOC(C=CC(C)(C)C1(O)O2)O3` (stereo not shown) [bryolog 4], the Ki at PKC [1] (setting [4]) was 2.3 nM.

As to `CCC1CC1CC1CC1CC1CC1CC1CC1CC1CC1CC1CC1CCC(=O)OC` (stereo not shown) [DHA-CP6, cyclopropanated docosahexaenoic acid methyl ester], the effective concentration with PKC [2] is reported as 10 nM.

Consider `CC1=CC[C@H](C)C(C)(C)[C@@H]1/C=C/C(C)=C/CC[C@@]1(CO)[C@H](CCCO)/C(=C(/C)C=O)CC[C@]1(C)O` [Iripallidal], for which the “GI50 (concentration required to inhibit growth by 50%)” value in the data set on NCI 60 cell line screen is “micromolar to nanomolar range”.

For `CCCCCCCC(=O)O[C@H]1/C(=C/C(=O)OC)C[C@H]2C[C@H](CO)OC(=O)C[C@H](O)C[C@@H]3CCC[C@H](C[C@@H]4CCO[C@H](/C=C/C(C)(C)[C@]1(O)O2)O4)O3` [Analog 1], the “affinity for PKC (in words)” value with PKC [1] is given as “highest affinity”. Further, the Ki on PKC [1] (read-out: PKC Affin) was 0.25 nM.

Consider `CCCCCCCC(=O)OC1C(=CC(=O)OC)CC2CC(CO)OC(=O)CC(O)CCOC(C(C)(C)C)CC3CCOC(C=CC(C)(C)C1(O)O2)O3` (stereo not shown) [bryolog 3], for which the Ki on PKC [1] (setting [4]) was 6.5 nM.

In the case of `CC1=C[C@]23C(=O)[C@@H](C=C(COC(=O)c4ccccc4)[C@@H](O)[C@]2(O)[C@H]1OC(=O)c1ccccc1)[C@H]1[C@@H](C[C@H]3C)C1(C)C` [Ingenol 3,20-dibenzoate], the Ki at PKC [3] was 240 nM.
